Experimental data as given in a compilation of properties of binary mixtures (doi:10.1021/acs.jpcb.5b11900).

Test: xn = mol fraction of the nth substance listed
Settings: 101 kPa

CCC[NH3+].O=[N+]([O-])[O-] + CC[NH3+].O=[N+]([O-])[O-]
x2 = 0.5
Settings | electrical conductivity [S/m] | viscosity [mPa·s]
288.15 K | 0.991 | –
298.15 K | 1.42 | 53
308.15 K | 1.93 | 37.1
313.15 K | 2.22 | 31.6
323.15 K | 2.85 | 23.5
328.15 K | – | 20.5
333.15 K | – | 18.1
338.15 K | – | 16
343.15 K | – | 14.3
348.15 K | – | 12.8

CCCC[NH3+].O=[N+]([O-])[O-] + CC[NH3+].O=[N+]([O-])[O-]
Settings | electrical conductivity, x2 = 0.25 [S/m] | electrical conductivity, x2 = 0.5 [S/m] | electrical conductivity, x2 = 0.75 [S/m] | viscosity, x2 = 0.25 [mPa·s] | viscosity, x2 = 0.5 [mPa·s] | viscosity, x2 = 0.75 [mPa·s]
288.15 K | – | 0.646 | – | – | – | –
293.15 K | 0.507 | 0.792 | 1.2 | 104.4 | 82.3 | 62
298.15 K | 0.615 | 0.951 | 1.43 | 83.7 | 66.6 | 50.6
303.15 K | 0.742 | 1.13 | – | 68.1 | 54.7 | –
308.15 K | – | 1.33 | 1.95 | – | 45.6 | 35.5
313.15 K | 1.03 | 1.54 | 2.24 | 47 | 38.5 | 30.6
318.15 K | 1.2 | 1.77 | 2.55 | 39.5 | 32.7 | 26
323.15 K | – | 2.02 | 2.88 | – | 28.1 | 22.6
328.15 K | – | – | – | 29 | 24.4 | 19.8
333.15 K | – | – | – | – | 21.3 | 17.6
338.15 K | – | – | – | – | 18.7 | –
343.15 K | – | – | – | – | 16.6 | 13.8
348.15 K | – | – | – | 17.2 | 14.8 | 12.4
353.15 K | – | – | – | – | – | 11.3

CC[N+](CC)(CC)CC.O=[N+]([O-])[O-] + CC[NH3+].O=[N+]([O-])[O-]
Settings | electrical conductivity [S/m] | viscosity [mPa·s]
293.15 K, x1 = 0.0501 | 1.56 | 50.7
293.15 K, x1 = 0.1 | 1.27 | 60.1
293.15 K, x1 = 0.2001 | 0.797 | 91.6
293.15 K, x1 = 0.2567 | 0.623 | 122
293.15 K, x1 = 0.2995 | 0.392 | 144
293.15 K, x1 = 0.35 | 0.359 | 211
298.15 K, x1 = 0.0501 | 1.83 | 42.2
298.15 K, x1 = 0.1 | 1.5 | 49.6
298.15 K, x1 = 0.15 | 1.21 | 60.4
298.15 K, x1 = 0.2001 | 0.96 | 74
298.15 K, x1 = 0.2567 | 0.762 | 96.9
298.15 K, x1 = 0.2995 | – | 114
298.15 K, x1 = 0.35 | 0.462 | 167
303.15 K, x1 = 0.1 | 1.76 | 41.4
303.15 K, x1 = 0.2001 | 1.14 | 60.7
303.15 K, x1 = 0.2567 | 0.912 | 78.3
303.15 K, x1 = 0.2995 | 0.594 | 91.3
308.15 K, x1 = 0.0501 | 2.44 | 30.3
308.15 K, x1 = 0.1 | 2.03 | 35.5
308.15 K, x1 = 0.15 | 1.65 | 41.9
308.15 K, x1 = 0.2567 | 1.08 | 64.1
308.15 K, x1 = 0.2995 | 0.715 | 74.2
308.15 K, x1 = 0.35 | 0.671 | 104
313.15 K, x1 = 0.0501 | 2.78 | 26
313.15 K, x1 = 0.15 | 1.91 | 35.6
313.15 K, x1 = 0.2001 | 1.56 | 42.4
313.15 K, x1 = 0.2567 | 1.26 | 53.4
313.15 K, x1 = 0.2995 | 0.848 | 61.3
313.15 K, x1 = 0.35 | 0.804 | 85.4
318.15 K, x1 = 0.0501 | 3.14 | 22.5
318.15 K, x1 = 0.1 | 2.65 | 26.1
318.15 K, x1 = 0.15 | 2.17 | 30.4
318.15 K, x1 = 0.2001 | 1.79 | 35.9
318.15 K, x1 = 0.2567 | 1.46 | 44.7
318.15 K, x1 = 0.35 | 0.948 | 69.4
323.15 K, x1 = 0.0501 | 3.52 | 19.7
323.15 K, x1 = 0.1 | 2.99 | 22.7
323.15 K, x1 = 0.2001 | 2.04 | 30.7
323.15 K, x1 = 0.2567 | 1.68 | 37.9
323.15 K, x1 = 0.2995 | 1.22 | 42.8
323.15 K, x1 = 0.35 | 1.11 | 57.6
328.15 K, x1 = 0.0501 | – | 17.3
328.15 K, x1 = 0.1 | – | 19.9
328.15 K, x1 = 0.15 | – | 22.8
328.15 K, x1 = 0.2995 | – | 36.4
333.15 K, x1 = 0.0501 | – | 15.3
333.15 K, x1 = 0.1 | – | 17.5
333.15 K, x1 = 0.2001 | – | 23.2
333.15 K, x1 = 0.2567 | – | 28.1
333.15 K, x1 = 0.2995 | – | 31.3
333.15 K, x1 = 0.35 | – | 41.5
338.15 K, x1 = 0.0501 | – | 13.7
338.15 K, x1 = 0.1 | – | 15.5
338.15 K, x1 = 0.15 | – | 17.7
338.15 K, x1 = 0.2001 | – | 20.3
338.15 K, x1 = 0.2567 | – | 24.3
338.15 K, x1 = 0.2995 | – | 27
338.15 K, x1 = 0.35 | – | 35.1
343.15 K, x1 = 0.0501 | – | 12.3
343.15 K, x1 = 0.1 | – | 13.6
343.15 K, x1 = 0.2001 | – | 18
343.15 K, x1 = 0.2567 | – | 21.4
343.15 K, x1 = 0.2995 | – | 23.6
343.15 K, x1 = 0.35 | – | 30.2
348.15 K, x1 = 0.0501 | – | 11.1
348.15 K, x1 = 0.1 | – | 12.2
348.15 K, x1 = 0.15 | – | 14.1
348.15 K, x1 = 0.2567 | – | 18.9
348.15 K, x1 = 0.2995 | – | 20.7
353.15 K, x1 = 0.0501 | – | 10
353.15 K, x1 = 0.15 | – | 12.7
353.15 K, x1 = 0.2001 | – | 14.4
353.15 K, x1 = 0.2567 | – | 16.9
353.15 K, x1 = 0.2995 | – | 18.4

CC[NH3+].O=[N+]([O-])[O-] + CC[NH2+]CC.O=[N+]([O-])[O-]
x2 = 0
Settings | electrical conductivity [S/m] | viscosity [mPa·s]
288.15 K | 1.62 | –
293.15 K | 1.93 | 43.5
298.15 K | 2.25 | 36.5
303.15 K | 2.6 | 31
308.15 K | 2.97 | 26.5
313.15 K | 3.37 | 22.8
318.15 K | 3.78 | 20
328.15 K | – | 15.6
338.15 K | – | 12.5
348.15 K | – | 10.2
353.15 K | – | 9.21

CC[NH3+].O=[N+]([O-])[O-] + CC[N+](CC)(CC)CC.O=[N+]([O-])[O-]
x2 = 0
Settings | electrical conductivity [S/m] | viscosity [mPa·s]
293.15 K | 1.93 | 43.5
298.15 K | 2.25 | 36.5
303.15 K | 2.6 | 31
308.15 K | 2.97 | 26.5
313.15 K | 3.37 | 22.8
318.15 K | 3.78 | 20
323.15 K | 4.22 | 17.6
328.15 K | – | 15.6
333.15 K | – | 13.8
343.15 K | – | 11.2
348.15 K | – | 10.2
353.15 K | – | 9.2
